Target: T1, human GPR40 (Homo sapiens, UniProt O14842)
T1 construct: expressed in transfected cells
Assay: Inositol Phosphate Turnover (IP1) Assay
Type: cell-based
Settings: HEK cells stably expressing human GPR40; CisBio IP-One kit; 60 minutes at 37 degrees; read-out: Human IP1 EC50
Procedure: Human GPR40 stable cell-lines were generated in HEK cells. The expression plasmids were transfected using lipofectamine (Life Technologies) following manufacturer's instructions. Stable cell-lines were generated following drug selection and single cell cloning. The assay was performed in 384-well format. HEK cells stably expressing human GPR40 were plated at 7500 cells per well in growth medium (DMEM/10% fetal calf serum). Cell plates were then incubated 16 hours at 37 degrees in a 5% CO2 incubator. Measurement of Inositol Phosphate Turnover (IP1) was performed using the CisBio IP-One kit (Part number 62IPAPEB). After the 16 hour incubation, the growth media was removed by centrifugation using the BlueWasher (AusWasher GUI Ver. v1.0.1.8) Protocol #21-“Light Dry” and 10 ul of stimulation buffer (prepared as described in the kit) was added to each well. In a separate plate, compounds were diluted in DMSO (200-fold over the final concentration in the assay well) and 50 nl was acoustically transferred to the appropriate well in the assay cell plate. The plates were then incubated for 60 minutes at 37 degrees in a 5% CO2 incubator. 10 ul of detection buffer (also prepared as described in the IP-One kit) was added to each well and the plates were incubated at room temperature for 60 minutes in the dark. The plates were then read in a Perkin Elmer EnVision or equivalent reader able to measure FRET. […] Data was normalized to % activity using a reference compound and EC50s determined using a standard 4-parameter fit.

T1 sequence (O14842 whole entry): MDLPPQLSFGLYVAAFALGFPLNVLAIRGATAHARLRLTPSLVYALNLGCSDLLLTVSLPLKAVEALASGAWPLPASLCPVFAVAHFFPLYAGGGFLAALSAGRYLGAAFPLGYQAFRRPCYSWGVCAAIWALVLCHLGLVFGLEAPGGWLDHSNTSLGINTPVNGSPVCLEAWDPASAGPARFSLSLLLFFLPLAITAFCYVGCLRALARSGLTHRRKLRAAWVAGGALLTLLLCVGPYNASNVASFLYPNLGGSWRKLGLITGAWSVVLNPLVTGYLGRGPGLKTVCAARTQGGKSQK

Row | EC50 [nM] | SMILES
1 | 115 | CC(c1cc(OC(F)(F)F)ccc1F)N1CCC2(CCc3ccc([C@H](C4CC4)[C@H](C)C(=O)O)cc3O2)CC1 (mixture of isomers) [Example 29, (2S,3R)-3-cyclopropyl-3-(1′-((RS)-1-(2-fluoro-5-(trifluoromethoxy)phenyl)ethyl)spiro[chroman-2,4′-piperidin]-7-yl)-2-methylpropanoic acid]
2 | 91.6 | Cc1cc(-c2ccc(OC(F)(F)F)c(C(C)N3CCC4(CCc5ccc([C@H](C6CC6)[C@H](C)C(=O)O)cc5O4)CC3)c2)n(C)n1 (mixture of isomers) [Example 114, (2S,3R)-3-cyclopropyl-3-(1′-((RS)-1-(5-(1,3-dimethyl-1H-pyrazol-5-yl)-2-(trifluoromethoxy)phenyl)eth-yl)spiro[chroman-2,4′-piperidin]-7-yl)-2-methylpropanoic acid]
3 | 415 | C[C@H](C(=O)O)[C@H](c1ccc2c(c1)OC1(CC2)CCN([C@@H](C)c2nccnc2C(F)(F)F)CC1)C1CC1 (mixture of isomers) [Example 125, (2S,3R)-3-cyclopropyl-2-methyl-3-(1′-((RS)-1-(3-(trifluoromethyl)pyrazin-2-yl)ethyl)spiro[chroman-2,4′-piperidin]-7-yl)propanoic Acid]
4 | 3.6 | CC(c1cc(C(F)(F)F)ccc1C1CC1)N1CCC2(CCc3ccc([C@H](C4CC4)[C@H](C)C(=O)O)cc3O2)CC1 (single isomer, unassigned) [Example 13, sodium (2S,3R)-3-cyclo-propyl-3-(1′-((R or S)-1-(2-cyclopropyl-5-(trifluoromethyl)phenyl)ethyl)spiro[chroman-2,4′-piperidin]-7-yl)-2-methylpropanoale]
5 | 5.9 | CC(c1cc(C(F)(F)F)ccc1C1CC1)N1CCC2(CCc3ccc([C@H](C4CC4)[C@H](C)C(=O)O)cc3O2)CC1 (single isomer, unassigned) [Example 15, sodium (2S,3R)-3-cyclo-propyl-3-(1′-((S or R)-1-(2-cyclopropyl-5-(trifluoromethyl)phenyl)ethyl)spiro[chroman-2,4′-piperidin]-7-yl)-2-methylpropanoate]
6 | 37.6 | CC(c1cc(F)cc(F)c1Cl)N1CCC2(CCc3ccc([C@H](C4CC4)[C@H](C)C(=O)O)cc3O2)CC1 (single isomer, unassigned) [Example 19]
7 | 49.9 | CC(c1nc(C(F)(F)F)ccc1Cl)N1CCC2(CCc3ccc([C@H](C4CC4)[C@H](C)C(=O)O)cc3O2)CC1 (single isomer, unassigned) [Example 31]
8 | 50 | CC(c1cc(Cl)ccc1OC(F)F)N1CCC2(CCc3ccc([C@H](C4CC4)[C@H](C)C(=O)O)c(F)c3O2)CC1 (single isomer, unassigned) [Example 33, (2S,3R)-3-(1′-((R or S)-1-(5-chloro-2-(difluoromethoxy)phenyl)ethyl)-8-fluorospiro-[chroman-2,4′-piperidin]-7-yl)-3-cyclopropyl-2-methylpropanoic Acid]
9 | 8.9 | CC(c1cc(Cl)ccc1OC(F)F)N1CCC2(CCc3ccc([C@H](C4CC4)[C@H](C)C(=O)O)c(F)c3O2)CC1 (single isomer, unassigned) [Example 34, (2S,3R)-3-(1′-((S or R)-1-(5-chloro-2-(difluoro-methoxy)phenyl)ethyl)-8-fluorospiro-[chroman-2,4′-piperidin]-7-yl)-3-cyclopropyl-2-methylpropanoic acid]
10 | 60.2 | CC(c1ncccc1C(F)(F)F)N1CCC2(CCc3ccc([C@H](C4CC4)[C@H](C)C(=O)O)cc3O2)CC1 (single isomer, unassigned) [Example 43, (2S,3R)-3-cyclopropyl-2-methyl-3-(1′-((S or R)-1-(3-(trifluoromethyl)-pyridin-2-yl)ethyl)spiro[chroman-2,4′-piperidin]-7-yl)propanoic Acid]
11 | 2.64 | C[C@H](C(=O)O)[C@H](c1ccc2c(c1)OC1(CCCN(Cc3cc(C(F)(F)F)ccc3C(F)(F)F)CC1)CC2)C1CC1 (single isomer, unassigned) [Example 47, (2S,3R)-3-((R or S)-1-(2,5-bis(trifluoromethyl)benzyl)spiro[azepane-4,2′-chroman]-7′-yl)-3-cyclopropyl-2-methylpropanoic Acid]
12 | 1.06 | C[C@H](C(=O)O)[C@H](c1ccc2c(c1)OC1(CCCN(Cc3cc(C(F)(F)F)ccc3C(F)(F)F)CC1)CC2)C1CC1 (single isomer, unassigned) [Example 48, sodium (2S,3R)-3-((R or S)-1-(2,5-bis (trifluoromethyl)benzyl)spiro[azepane-4,2′-chroman]-7′-yl)-3-cyclopropyl-2-methyl-propanoate]

The remaining lines, values behind:

Row | SMILES | EC50 [nM]
13 | C[C@H](C(=O)O)[C@H](c1ccc2c(c1F)OC1(CC2)CCN([C@H](C)c2cc(C(F)(F)F)ccc2Cl)CC1)C1CC1 (mixture of isomers) [Example 12, (2S,3R)-3-(1′-((RS)-1-(2-chloro-5-(trifluoro-methyl)phenyl)ethyl)-8-fluorospiro[chroman-2,4′-piperidin]-7-yl)-3-cyclopropyl-2-methylpropanoic acid] | 995
14 | CC(c1cc(C(F)(F)F)ccc1F)N1CCC2(CCc3ccc([C@H](C4CC4)[C@H](C)C(=O)O)cc3O2)CC1 (mixture of isomers) [Example 28, (2S,3R)-3-cyclopropyl-3-(1′-((RS)-1-(2-fluoro-5-(trifluoromethyl)phenyl)ethyl)spiro[chroman-2,4′-piperidin]-7-yl)-2-methylpropanoic acid] | 11
15 | Cc1ccc(OC(F)(F)F)c(C(C)N2CCC3(CCc4ccc([C@H](C5CC5)[C@H](C)C(=O)O)cc4O3)CC2)c1 (mixture of isomers) [Example 112] | 21.5
16 | Cc1ccc(-c2ccc(OC(F)(F)F)c(C(C)N3CCC4(CCc5ccc([C@H](C6CC6)[C@H](C)C(=O)O)cc5O4)CC3)c2)o1 (mixture of isomers) [Example 122, (2S,3R)-3-cyclopropyl-2-methyl-3-(1′-((RS)-1-(5-(5-methylfuran-2-yl)-2-(trifluoromethoxy)phenyl)eth-yl)spiro[chroman-2,4′-piperidin]-7-yl)propanoic acid] | 42.5
17 | CC(c1cc(Cl)ccc1C(F)(F)F)N1CCC2(CCc3ccc([C@H](C4CC4)[C@H](C)C(=O)O)cc3O2)CC1 (mixture of isomers) [Example 5, (2S3R)-3-(1′-((RS)-1-(5-chloro-2-(trifluoromethyl)phenyl)ethyl)spiro[chroman-2,4′-piperidin]-7-yl)-3-cyclopropyl-2-methylpropanoic Acid] | 2.71
18 | CC(c1cc(C(F)(F)F)ccc1C1CC1)N1CCC2(CCc3ccc([C@H](C4CC4)[C@H](C)C(=O)O)c(F)c3O2)CC1 (single isomer, unassigned) [Example 11, sodium (2S,3R)-3-cyclopropyl-3-(1′-((R or S)-1-(2-cyclopropyl-5-(trifluoromethyl)-phenyl)ethyl)-8-fluorospiro[chroman-2,4′-piperidin]-7-yl)-2-methylpropanoate] | 0.434
19 | CC(c1cc(C(F)(F)F)ccc1C1CC1)N1CCC2(CCc3ccc([C@H](C4CC4)[C@H](C)C(=O)O)c(F)c3O2)CC1 (single isomer, unassigned) [Example 14, sodium (2S,3R)-3-cyclo-propyl-3-(1′-((S or R)-1-(2-cyclopropyl-5-(trifluoromethyl)phenyl)-ethyl)-8-fluorospiro [chroman-2,4′-piperidin]-7-yl)-2-methylpropanoate] | 36.3
20 | CC(c1cc(F)cc(F)c1Cl)N1CCC2(CCc3ccc([C@H](C4CC4)[C@H](C)C(=O)O)c(F)c3O2)CC1 (single isomer, unassigned) [Example 17, (2S,3R)-3-(1′-((S or R)-1-(2-chloro-3,5-difluorophenyl)ethyl)-8-fluorospiro-[chroman-2,4′-piperidin]-7-yl)-3-cyclopropyl-2-methylpropanoic Acid] | 37.3
21 | CC(c1cc(F)cc(F)c1Cl)N1CCC2(CCc3ccc([C@H](C4CC4)[C@H](C)C(=O)O)cc3O2)CC1 (single isomer, unassigned) [Example 18] | 46.1
22 | CC(c1nc(C(F)(F)F)ccc1Cl)N1CCC2(CCc3ccc([C@H](C4CC4)[C@H](C)C(=O)O)cc3O2)CC1 (single isomer, unassigned) [Example 30] | 50.4
23 | CC(c1ncccc1C(F)(F)F)N1CCC2(CCc3ccc([C@H](C4CC4)[C@H](C)C(=O)O)cc3O2)CC1 (single isomer, unassigned) [Example 44, (2S,3R)-3-cyclo-propyl-2-methyl-3-(1′-((R or S)-1-(3-(trifluoromethyl)pyridin-2-yl)ethyl)spiro-[chroman-2,4′-piperidin]-7-yl)propanoic acid] | 311
24 | C[C@H](C(=O)O)[C@H](c1ccc2c(c1)OC1(CCCN([C@H](C)c3cc(C(F)(F)F)ccc3C(F)(F)F)CC1)CC2)C1CC1 (single isomer, unassigned) [Example 49, (2S,3R)-3-((R or S)-1-((R)-1-(2,5-bis (trifluoromethyl)phenyl)ethyl)spiro[azepane-4,2′-chroman]-7′-yl)-3-cyclopropyl-2-methylpropanoic acid] | 0.527

Source: patent US10968232B2 (Merck Sharp & Dohme Corp., priority 2016, dated 2021)
